Experimental data taken from patent US12559474B2, “Triazine derivatives having virus replication inhibitory activity and pharmaceutical composition comprising the same” (priority 2021, dated 2026).
Where two headings read alike, the source gives them in different places.

Assays:
[1] = test system: SARS-CoV-2; experiment: microbe, parasite or virus in culture; format: cell-based; conditions: Severe acute respiratory syndrome coronavirus 2, VeroE6/TMPRSS2, 72 h, 50% SARS-CoV-2 infected cell death inhibitory concentration, VeroE6/TMPRSS2 cells, 3 days culture
[2] = molecular target: SARS-CoV-2 3CL protease (Severe acute respiratory syndrome coronavirus 2, UniProt P0DTD1); experiment: biochemical; conditions: 50% SARS-CoV-2 3CL protease inhibitory concentration, read-out: IC50

SMILES	EC50 ([1]; class symbols) [nM]	IC50 ([2]; given as class symbols) [nM]	EC50 ([1]; CellTiter-Glo 2.0) [nM]	IC50 ([2]; RapidFire MS) [nM]
Cc1c2cc(Nc3nc(=O)n(Cc4ncn(C)n4)c(=O)n3Cc3cc(F)c(F)cc3F)c(Cl)cc2nn1C [II-0450]	1000 to 10000	< 100		
Cc1c2cc(Nc3nc(=O)n(Cc4ncn(C)n4)c(=O)n3Cc3cc(F)c(F)c(F)c3)c(Cl)cc2nn1C [II-0452]	1000 to 10000	< 100		
Cn1cnc(Cn2c(=O)nc(Nc3cc4c(N5CCCC5)n(C)nc4cc3Cl)n(Cc3cc(F)c(F)c(F)c3)c2=O)n1 [II-0453]	1000 to 10000	< 100		
COc1c2cc(Nc3nc(=O)n(Cc4ncn(C)n4)c(=O)n3Cc3cc(F)c(F)cc3F)c(Cl)cc2nn1C [II-0454]	1000 to 10000	< 100		
Cn1cnc(Cn2c(=O)nc(Nc3cc4c(F)n(C)nc4cc3Cl)n(Cc3cc(F)c(F)cc3F)c2=O)n1 [II-0455]			750	19
Cc1cncc(-n2c(=O)nc(Nc3c(Cl)cc4nn(C)cc4c3F)n(Cc3ccc(F)c(C#N)c3)c2=O)c1 [II-0458]	< 1000	< 100		
Cn1cnc(Cn2c(=O)nc(Nc3cc4cn(CC(F)F)nc4cc3F)n(Cc3cc(Cl)c(F)cc3F)c2=O)n1 [II-0459]	1000 to 10000	< 100		
O=c1[nH]cccc1Cn1c(=O)nc(NC23CC(Nc4ncc(F)cn4)(C2)C3)n(Cc2cc(F)c(F)c(F)c2)c1=O [II-0460]			19000	22
Cn1cnc(Cn2c(=O)nc(Nc3cc4c(-n5cccn5)n(C)nc4cc3Cl)n(Cc3cc(F)c(F)cc3F)c2=O)n1 [II-0461]	1000 to 10000	< 100		
Cn1nc2cc(Cl)c(Nc3nc(=O)n(-c4cncc5ccccc45)c(=O)n3Cc3cc(F)c(F)c(F)c3)cc2c1F [II-0462]	< 1000	< 100		
Cc1cncc(-n2c(=O)nc(Nc3cc4cccnc4cc3Cl)n(Cc3ccc(F)c(C#N)c3)c2=O)c1 [II-0463]	< 1000	< 100		
Cc1cncc(-n2c(=O)nc(Nc3cc4c(F)n(C)nc4cc3Cl)n(Cc3cc(F)c(F)c(F)c3)c2=O)c1 [II-0464]	< 1000	< 100		
Cn1cnc(Cn2c(=O)nc(Nc3cc4cn(CC(F)F)nc4cc3F)n(Cc3cc(F)c(F)c(Cl)c3)c2=O)n1 [II-0466]	1000 to 10000	< 100		
Cn1cnc(Cn2c(=O)nc(Nc3cc4c(C(F)(F)F)n(C)nc4cc3Cl)n(Cc3cc(F)c(F)cc3F)c2=O)n1 [II-0468]	1000 to 10000	< 100		
Cc1cncc(-n2c(=O)nc(Nc3ccc4nn(C)cc4c3)n(Cc3ccc(F)c(Cl)c3)c2=O)c1 [II-0469]	< 1000	< 100		
Cn1cc2cc(Nc3nc(=O)n(-c4cncc(Cl)c4)c(=O)n3Cc3cc(F)c(F)cc3F)c(F)cc2n1 [II-0475]	1000 to 10000	< 100		
Cc1cncc(-n2c(=O)nc(Nc3cc4ccnn4cc3Cl)n(Cc3ccc(F)c(C#N)c3)c2=O)c1 [II-0477]	1000 to 10000	< 100		
Cc1cncc(-n2c(=O)nc(Nc3cc4c(cc3Cl)nc(N(C)C)n4C)n(Cc3cc(F)c(F)c(F)c3)c2=O)c1 [II-0478]	1000 to 10000	< 100		
COc1cc(Cl)c(Nc2nc(=O)n(-c3cncc(C)c3)c(=O)n2Cc2ccc(F)c(C#N)c2)cn1 [II-0479]	1000 to 10000	< 100		
CC(C)(Nc1nc(=O)n(Cc2ccc[nH]c2=O)c(=O)n1Cc1cc(F)c(F)c(F)c1)c1ccccc1F [II-0482]			44500	410
Cc1cncc(-n2c(=O)nc(N(C)c3cc4cn(C)nc4cc3Cl)n(Cc3cc(F)c(F)c(F)c3)c2=O)c1 [II-0483]			20900	1800
O=c1[nH]cccc1Cn1c(=O)nc(NC2(c3ccccc3F)COC2)n(Cc2cc(F)c(F)c(F)c2)c1=O [II-0484]			14200	3400
Cn1cc2cc(Nc3nc(=O)n(-c4cncc(C#N)c4)c(=O)n3Cc3cc(Cl)c(F)cc3F)c(Cl)cc2n1 [II-0485]	< 1000	< 100		
Cn1cc2cc(Nc3nc(=O)n(-c4cncc(C#N)c4)c(=O)n3Cc3ccc(F)c(C#N)c3)c(Cl)cc2n1 [II-0486]	1000 to 10000	< 100		
Cn1cc2cc(Nc3nc(=O)n(-c4cnc5ccccn45)c(=O)n3Cc3cc(Cl)c(F)cc3F)c(Cl)cc2n1 [II-0487]	1000 to 10000	< 100		
Cn1cc2cc(Nc3nc(=O)n(-c4cncc(C#N)c4)c(=O)n3Cc3cc(F)c(F)c(Cl)c3)c(Cl)cc2n1 [II-0489]	1000 to 10000	< 100		
Cn1cc2cc(Nc3nc(=O)n(-c4cnc5ccccn45)c(=O)n3Cc3cc(F)c(F)c(Cl)c3)c(Cl)cc2n1 [II-0490]			8700	83
Cn1cc2cc(Nc3nc(=O)n(-c4cncc(C#N)c4)c(=O)n3Cc3cc(F)c(F)c(F)c3)c(Cl)cc2n1 [II-0491]	1000 to 10000	< 100		
COc1ccc(Nc2nc(=O)n(-c3cncc(C)c3)c(=O)n2-c2cccc(Cl)c2)cc1 [II-0492]	< 1000			1000
